These results are taken from patent US9782368B2, “Use of N,N-bis-2-mercaptoethyl isophthalamide” (EMERAMED LIMITED, priority 2014, dated 2017).

Series [1] relates to cigarette smoke (CS)-induced airway disease. Briefly: In vivo smoking mouse study I (14-day cigarette smoke exposure). On the set-up: species or system BALB/c mice. As for the experimental part: A mouse model of cigarette smoke (CS)-induced airway disease was developed, in which four groups of BALB/c mice were exposed to CS (nose-only) using a cigarette smoking machine that produces a combination of side-stream and mainstream smoke from filtered research cigarettes, 7 days a week over 2 weeks.
As part of a 14-day dose-finding study, three groups of mice were administered NMBI subcutaneously (5, 30 or 150 mg/kg) before each exposure to CS. Inflammatory cell counts in bronchoalveolar lavage (BAL), flow cytometry (FACS) analysis and cytokine analysis in BAL were carried out.
Female BALB/c mice (Harlem laboratories, Netherlands) were used in this study. They were housed in plastic cages with absorbent bedding material and were maintained on a 12 hour daylight cycle. Food and water were provided ad libitum. Their care and the experimental protocols were approved by the Regional Ethics Committee on Animal Experiments in Umeå. Mice were 12 weeks of age when the cigarette exposure protocol started.
Animals were subjected to inhaled CS (both side-stream and main-stream smoke). The CS exposure was performed in a microprocessor-controlled cigarette smoking machine (TE-10, Teague Enterprises, CA, USA) that produces smoke from research cigarettes (1R5F, University of Kentucky, Lexington, Ky., USA).
Cigarettes are automatically loaded into a wheel, lit, puffed and ejected. Each cigarette was smoked for 10 minutes and the airflow through the machine was set to 12 L/min. Cigarettes were stored at −20° C. until needed. Mice were subjected to 4 cigarettes every 10 minutes×3 (i.e. 12 cigarettes over 30 minutes), once a day, 7 days a week, over two weeks. The smoke was transferred into a smoke tower (EMMS, UK) providing equal and simultaneous exposure to the CS.
Mice were placed into plastic chambers and subjected to CS by “nose-only” inhalation. Control mice were handled every day and breathed room-air, but were not taken out of their cages.
Accordingly, the 5 treatment groups are as follows: • 1. Daily exposure to clean air (Placebo Group) • 2. Daily exposure to CS (CS-Exposed Placebo Group) • 3. Daily exposure to CS; treated with NBMI at a 5 mg/kg dose (NBMI 5 mg/kg Group) • 4. Daily exposure to CS; treated with NBMI at a 30 mg/kg dose (NBMI 30 mg/kg Group) • 5. Daily exposure to CS; treated with NBMI at a 150 mg/kg dose (NBMI 150 mg/kg Group)
On Day 15, mice were exsanguinated and subjected to bronchoalveolar lavage (BAL). The lungs were lavaged four times via the tracheal tube with a total volume of 1 mL+3×1 mL Ca^2+/Mg^2+ free Hanks' balanced salt solution (HBSS, Sigma-Aldrich, Steinheim, Germany).
The BAL fluid was then immediately centrifuged (10 minutes, 4° C., 1750 rpm). After removing the supernatant until further analysis, the cell pellet was re-suspended and then diluted with 0.5 mL PBS. Leukocytes were counted manually in a hemocytometer so that 20,000 cells could be loaded and centrifuged using a Cytospin® centrifuge (Shandon® cytospin 3 cyto-centrifuge, cell preparation system).
Cytocentrifuged preparations were stained with May-Grünwald-Giemsa reagent and differential cell counts of pulmonary inflammatory cells (macrophages, neutrophils, lymphocytes, and eosinophils) were made using standard morphological criteria and counting 300 cells per cytospin preparation.
Inflammatory mediators in BAL and serum were analyzed for the presence of interleukin (IL)-1α, IL-1β, IL-2, IL-3, IL-4, IL-5, IL-6, IL-9, IL-10, IL-12p40, IL-12p70, IL-13, IL17, Eotaxin, G-CSF, INFγ, GM-CSF, KC, MCP-1, MIP-1α, MIP-Iβ, RANTES and TNFα. All cytokine analyses were performed simultaneously with a multiplex kit (BioPlex™ Pro Mouse Cytokine 23-plex panel) according to the manufacturer's instructions (Bio-Rad) and analyzed on a Bio-Plex™ system (Luminex Bio-Plex™ 200 System, Bio-Rad, Hercules, Calif.).
Leukocytes from BAL were analyzed with flow cytometry using a BD FACSort™ (Becton Dickinson, San Jose, Calif.). […]

Series [2] concerns IL-6 and IL-8 secretion in A549 cells. Briefly: Particle-induced secretion of pro-inflammatory cytokines (ELISA) in A549 cells. As to conditions: A549 cells. The series is classed as cell-based. As for the experimental part: (§1) Secretion of the pro-inflammatory cytokines interleukin (IL)-6, IL-8 (as well as GM-CSF and MCP-1) into cell media in response to particle exposure was measured in A549 and BEAS-2B cells using the following method.
(§2) Lung epithelial cells were seeded at 5×10^4 in 24-well plates. After pre-incubation with NBMI, the anti-oxidant compound, N-acetyl-L-cysteine (NAC), which was used as a positive control, or vehicle, for 3 hours the medium was removed.
(§3) Fresh media containing various particles (as below) in different concentrations was in a total volume of 0.5 ml for an additional 24 hours. The supernatants were then separated from the cells by centrifugation.
(§4) IL-8, IL-6, GM-CSF and MCP-1 were measured in the cell free fluid using the DuoSet ELISA Development kit (R&D Systems, Abingdon, UK) according to manufacturer's protocol.
(§5) Exposure to medium only served as negative control. Each experiment was performed twice with 4 replicates.
(§6) The effect of pre-incubation with 50 μM NBMI on particle-induced cytokine formation was tested at various concentrations of relevant particles.

Series [3] relates to IL-6 and IL-8 secretion in BEAS-2B cells. As to the kind of experiment: Particle-induced secretion of pro-inflammatory cytokines (ELISA) in BEAS-2B cells. It counts as cell-based. As for the experimental part: as §1, §2, §3, §4, §5, §6
(In general: An ELISA detects its analyte on a solid surface through an enzyme-linked reagent.)

Where [4] appears, read: TiO2 P25 75 μg/cm^2, pre-incubation 50 μM NBMI.
[5] abbreviates: Urban Dust 100 μg/cm^2, pre-incubation 50 μM NBMI.
Setting [6] is: TiO2 P25 100 μg/cm^2, pre-incubation 50 μM NBMI.

For the molecule `O=C(NCCS)c1cccc(C(=O)NCCS)c1` [NBMI, N,N-bis-2-mercaptoethyl isophthalamide], in series [1] (5 mg/kg s.c., p<0.05), the “MIP-1α levels in BAL vs CS-Exposed Placebo Group” value is reported as “lowered”. Also, in series [1] (30 mg/kg s.c.), the “IL-10 level in serum” value is “increased levels”. In series [1] (150 mg/kg s.c.), the “Eotaxin level in serum vs CS-Exposed Placebo Group” value was “significantly lowered levels”, the “IL-1β level in serum vs CS-Exposed Placebo Group” value is “significantly lowered levels”, the “IL-3 level in serum vs CS-Exposed Placebo Group” value was “significantly lowered levels” and the “IL-6 level in serum vs CS-Exposed Placebo Group” value is “significantly lowered levels”. In addition, in series [1] (150 mg/kg s.c.), the “MIP-1α level in serum vs CS-Exposed Placebo Group” value is given as “significantly lowered levels” and the “RANTES level in serum vs CS-Exposed Placebo Group” value was “significantly lowered levels”. The “wounds at injection site” value in series [1] (150 mg/kg s.c., 14 days) is listed as “established wounds in the neck”. The ulceration result in series [1] (5 and 30 mg/kg s.c., 14 days) is listed as “no signs of ulceration”. For the same molecule, the “weight change from Day 1 to Day 15” value in series [1] (CS-exposed, regardless of dose of NBMI) is given as “lost weight significantly”. The final weight in series [1] (Day 15, 5 mg/kg s.c., CS-exposed, vs CS-exposed 20.3±0.3 g, p<0.05) worked out at 19.5 ± 0.3 g. The “neutrophils in BAL vs mice just exposed to CS” value in series [1] (Day 15, 30 mg/kg s.c.) is on record as “significantly lower numbers of neutrophils”. In series [1] (Day 15, 150 mg/kg s.c.), the “neutrophils in BAL vs mice just exposed to CS” value is reported as “significantly lower numbers of neutrophils”. For the same molecule, in series [1] (all groups (5, 30, 150 mg/kg)), the “CD4 cells and CD8 cells in BAL fluid” value is “no significant differences”. Besides, in series [2] (setting [4]), the “reduction of secretion of IL-6” value amounted to 38% and the “reduction of secretion of IL-8” value was 29%. In series [2] (setting [5]), the “reduction of secretion of IL-6” value amounted to 38% and the “reduction of secretion of IL-8” value was determined as 30%. Besides, in series [3] (setting [6]), the “reduction of secretion of IL-6” value was 37% and the “reduction of secretion of IL-8” value is recorded as 49%. Also, the “reduction of secretion of IL-6” value in series [3] (setting [5]) is 47%.
